IC50 data for 38 compounds are collected here from PubChem BioAssay AID504765 (Sanford-Burnham Center for Chemical Genomics, 2011).

Active and inactive are the calls of the source. How the calls were made is not given here.

This assay concerns the target glucose-6-phosphate dehydrogenase-6-phosphogluconolactonase (Plasmodium falciparum 3D7). The assay is described as follows: concentration-dependent PfGluPho enzyme inhibition – biochemical, fluorescence intensity, dose response (AID 504765). The settings on record: Recombinant PfG6PD enzyme, fluorescence intensity (NADPH).
As for `C(=N\Nc1nc2ccccc2[nH]1)/c1ccccn1`, the IC50 was 5.24 µM. On to `CC1=CC(=NOC(=O)/C=C/c2ccccc2)C=C(C)C1=O`, for which the IC50 is 13.9 µM. Regarding `O=C1CCC[C@@H]2[C@@H](Cc3ccccc3)[C@H](N3CCN(c4ccccc4)CC3)C[C@@H]3CCN1[C@@H]32`, the IC50 is 9.43 µM. To `CC1CN(c2ccccc2)NC1=O` (stereo not drawn) belongs 2.34 µM; to `CCOc1ccc(N(CC(=O)N/N=C/c2cc([N+](=O)[O-])ccc2Cl)S(C)(=O)=O)cc1`, 15.1 µM; to `O=C(CNC(=O)c1ccc(Br)cc1)NCC(=O)OCC(=O)c1ccc([N+](=O)[O-])cc1`, 18.1 µM. To `O=C1C=CC(=O)N1c1ccc(N2CCCCC2)cc1` belongs 15.6 µM; to `Cc1ccc(NC2=C(NC(=O)c3ccccc3)C(=O)c3ccccc3C2=O)cc1Cl`, 10.2 µM; to `Cc1ccccc1OCC(=O)N/N=C/c1ccc(Sc2nc3ccccc3s2)o1`, 16.8 µM. Consider `Cn1c(=O)c2c([nH]c(=S)n2CCCc2ccccc2)n(C)c1=O`, for which the IC50 was 19.5 µM.

In the case of `O=C(CN1CCN(c2ccc(O)cc2)CC1)Nc1cc(S(=O)(=O)N2CCOCC2)ccc1Cl`, the IC50 result is “inactive”. The result for `O=C(N/N=C/c1cccc([N+](=O)[O-])c1)C(=O)N1CCCCCC1` reads 5.45 µM; that for `Cc1ccc(SC2=C(Sc3ccc(C)cc3)C(=O)c3ccccc3C2=O)cc1`, 11 µM. To `CC(NC1=CC(=O)c2cccnc2C1=O)C(O)c1ccccc1` (stereo not drawn) belongs 4.03 µM. In the case of `CCn1c2ccccc2c2nc3cc(S(=O)(=O)N4CCOCC4)ccc3nc21`, the IC50 entry is “inactive”.

In the case of `Cc1ccc(/C=C/C(=O)Nc2ccc([N+](=O)[O-])c(NC(=O)/C=C/c3ccc(C)o3)c2)o1`, the IC50 was 4.84 µM.

Regarding `COC(=O)CCC(=O)OC1(C)C(=O)C2=CN(C3CC3)C(c3ccc(OC)cc3)=CC2=C(Br)C1=O` (stereo not drawn), the IC50 is 2.46 µM. To `Cc1cc(C)c2c(=N)c3ccccc3n(CCCCCCCCn3c4ccccc4c(=N)c4c(C)cc(C)nc43)c2n1` belongs 10.1 µM; to `Cc1ccc(/C=C/C(=O)NCc2ccc(S(N)(=O)=O)cc2)o1`, 5.78 µM; to `Cc1ccc(NC(=O)Cn2sc3nc(C)cc(C)c3c2=O)c(Cl)c1`, 2.09 µM. The result for `Cc1cc(C)c(S(=O)(=O)Nc2cc(SCC(=O)O)c(O)c3ccccc23)cc1C` reads 1.19 µM; that for `O=C(COc1ccccc1F)OCC(=O)c1ccc([N+](=O)[O-])cc1`, 12.4 µM. To `CCc1cc(-c2n[nH]c(C)c2-c2nc3ccccc3n2C)c(O)cc1O` belongs “inactive”; to `C=CCN1CCc2cccc3c2[C@H]1Cc1ccc(O)c(O)c1-3`, 19.6 µM. `O=C1C(c2cc(=O)c3ccccc3[nH]2)=C(O)c2ccccc21`: the IC50 is 8.25 µM.

With `Cc1nc2c(o1)C(=O)c1ccccc1C2=Nc1ccccc1`, the IC50 was 7 µM. The result for `CCN1CCN(c2nc(C)nc3c2sc(=S)n3C)CC1` reads 15.1 µM; that for `CCc1cc(-c2n[nH]c(C)c2-c2ccccc2Cl)c(O)cc1OC`, 7.52 µM; that for `Oc1cc(CNCc2ccccc2)c(O)cc1CNCc1ccccc1`, 3.36 µM.

Turning to `COc1ccc(N2CSC3=C(C#N)C(c4ccc(OC)c(OC)c4)CC(=O)N3C2)c(OC)c1` (stereo not drawn), the IC50 was 5.21 µM.

Turning to `CCOc1ccc(NC(=O)Cn2sc3nc(C)cc(C)c3c2=O)cc1`, the IC50 was 1.85 µM.

In the case of `COc1cccc(C(=O)Nc2nnc(C(C)C)s2)c1`, the IC50 was 5.83 µM. To `COc1cc(N=c2ssnc2Cl)cc(OC)c1OC` belongs 15.5 µM. The result for `COc1ccc(S(=O)(=O)Nc2cc(SCC(=O)O)c(O)c3ccccc23)cc1` reads 2.03 µM. The result for `Cc1ccc(C(=O)NCC(=O)NCC(=O)OCC(=O)c2ccc([N+](=O)[O-])cc2)cc1` reads 5.92 µM; that for `O=C1C(Cl)=C(NCCc2ccccc2)C(=O)c2ccccc21`, 3.32 µM. On to `COc1cc(/C=N/n2cc(-c3ccccc3)[nH]c2=S)cc(OC)c1O`, for which the IC50 is 19.6 µM. To `COc1cc(N)c2ncccc2c1OC` belongs 16.6 µM.
